Measurements taken from PMC5218480 (PLoS ONE, 2017).

System: MV-4-11 cells
Experiment: Gene expression microarray analysis (Affymetrix PrimeView) and GSEA
Assay type: cell-based, human
Set-up: RFU PODN (11730768_x_at) / Fold change /veh PODN (11730768_x_at) / RFU LINC00158 (11744669_a_at) / Fold change /veh LINC00158 (11744669_a_at) / RFU DUSP10 (11751237_a_at) / Fold change /veh DUSP10 (11751237_a_at) / RFU ID3 (11757404_x_at) / Fold change /veh ID3 (11757404_x_at) / RFU PLEKHG5 (11737974_s_at) / Fold change /veh PLEKHG5 (11737974_s_at) / RFU LRRC4B (11730491_at) / Fold change /veh LRRC4B (11730491_at) / RFU GIMAP4 (11747438_a_at) / Fold change /veh GIMAP4 (11747438_a_at) / RFU KRT8 (11758183_x_at) / Fold change /veh KRT8 (11758183_x_at) / RFU CNN1 (11734310_a_at) / Fold change /veh CNN1 (11734310_a_at) / RFU VPS37D (11726825_at) / Fold change /veh VPS37D (11726825_at) / RFU C10orf10 (11716522_x_at) / Fold change /veh C10orf10 (11716522_x_at) / RFU KIR2DL2 /// KIR2DL4 /// KIR2DL5A /// KIR2DL5B /// KIR2DS1 /// KIR2DS2 /// KIR2DS3 /// KIR2DS4 /// KIR3DL3 /// KIR3DL3 /// KIR3DS1 (11738374_at) / Fold change /veh KIR2DL2 /// KIR2DL4 /// KIR2DL5A /// KIR2DL5B /// KIR2DS1 /// KIR2DS2 /// KIR2DS3 /// KIR2DS4 /// KIR3DL3 /// KIR3DL3 /// KIR3DS1 (11738374_at) / RFU C1QL1 (11718748_at) / Fold change /veh C1QL1 (11718748_at) / RFU TMPRSS4 (11747572_a_at) / Fold change /veh TMPRSS4 (11747572_a_at) / RFU HAMP (11756126_x_at) / Fold change /veh HAMP (11756126_x_at) / RFU RNFT2 (11725882_a_at) / Fold change /veh RNFT2 (11725882_a_at) / RFU NR4A2 (11747474_a_at) / Fold change /veh NR4A2 (11747474_a_at) / RFU ABCC12 (11746883_a_at) / Fold change /veh ABCC12 (11746883_a_at) / RFU TMEM136 (11760407_x_at) / Fold change /veh TMEM136 (11760407_x_at) / RFU CLDN22 /// WWC2 (11732394_at) / Fold change /veh CLDN22 /// WWC2 (11732394_at) / RFU HLA-DPB1 (11760878_x_at) / Fold change /veh HLA-DPB1 (11760878_x_at) / RFU SPINT1 (11716480_a_at) / Fold change /veh SPINT1 (11716480_a_at) / RFU GAP43 (11754022_s_at) / Fold change /veh GAP43 (11754022_s_at) / RFU A4GNT (11735810_at) / Fold change /veh A4GNT (11735810_at) / RFU PRB3 (11715151_x_at) / Fold change /veh PRB3 (11715151_x_at) / RFU TUBB4B (11761932_at) / Fold change /veh TUBB4B (11761932_at) / RFU CAPN14 (11732068_a_at) / Fold change /veh CAPN14 (11732068_a_at) / RFU TMCC2 (11721928_a_at) / Fold change /veh TMCC2 (11721928_a_at) / RFU IRGQ (11745062_a_at) / Fold change /veh IRGQ (11745062_a_at) / RFU FAM174B (11720279_a_at) / Fold change /veh FAM174B (11720279_a_at) / RFU TMPRSS4 (11748680_a_at) / Fold change /veh TMPRSS4 (11748680_a_at) / RFU FAM212B (11763350_a_at) / Fold change /veh FAM212B (11763350_a_at) / RFU PLEKHG5 (11743358_a_at) / Fold change /veh PLEKHG5 (11743358_a_at) / RFU ZSCAN30 (11745921_a_at) / Fold change /veh ZSCAN30 (11745921_a_at) / RFU CMKLR1 (11741424_a_at) / Fold change /veh CMKLR1 (11741424_a_at) / RFU LOC101060620 /// MAPK8IP1 (11723275_at) / Fold change /veh LOC101060620 /// MAPK8IP1 (11723275_at) / RFU SPTSSB (11747773_x_at) / Fold change /veh SPTSSB (11747773_x_at) / RFU PRSS12 (11739890_at) / Fold change /veh PRSS12 (11739890_at) / RFU BIN1 (11741810_x_at) / Fold change /veh BIN1 (11741810_x_at) / RFU WNT11 (11732464_a_at) / Fold change /veh WNT11 (11732464_a_at) / RFU C10orf10 (11716521_a_at) / Fold change /veh C10orf10 (11716521_a_at) / RFU C5orf56 (11738089_at) / Fold change /veh C5orf56 (11738089_at) / RFU CYB561 (11721691_x_at) / Fold change /veh CYB561 (11721691_x_at) / RFU ANKRD19P (11752326_a_at) / Fold change /veh ANKRD19P (11752326_a_at) / RFU OR2T12 /// OR2T33 /// OR2T8 (11738714_s_at) / Fold change /veh OR2T12 /// OR2T33 /// OR2T8 (11738714_s_at) / RFU VCAN (11748164_a_at) / Fold change /veh VCAN (11748164_a_at) / RFU JSRP1 (11732532_at) / Fold change /veh JSRP1 (11732532_at) / RFU KRTAP10-11 (11738290_x_at) / Fold change /veh KRTAP10-11 (11738290_x_at) / RFU MYO3A (11730013_a_at) / Fold change /veh MYO3A (11730013_a_at) / RFU EBF3 (11725865_a_at) / Fold change /veh EBF3 (11725865_a_at) / RFU CAMK2N1 (11719241_x_at) / Fold change /veh CAMK2N1 (11719241_x_at) / RFU C5orf56 (11738088_a_at) / Fold change /veh C5orf56 (11738088_a_at) / RFU OLFML3 (11715873_a_at) / Fold change /veh OLFML3 (11715873_a_at) / RFU LOC100653217 /// NTM (11731650_a_at) / Fold change /veh LOC100653217 /// NTM (11731650_a_at) / RFU MAPK11 (11762145_a_at) / Fold change /veh MAPK11 (11762145_a_at) / RFU FIZ1 (11724087_x_at) / Fold change /veh FIZ1 (11724087_x_at) / RFU OASL (11726364_x_at) / Fold change /veh OASL (11726364_x_at) / RFU SOX15 (11748057_x_at) / Fold change /veh SOX15 (11748057_x_at) / RFU CD79A (11719716_a_at) / Fold change /veh CD79A (11719716_a_at) / RFU HIST1H1D (11736915_at) / Fold change /veh HIST1H1D (11736915_at) / RFU CASKIN2 (11723855_a_at) / Fold change /veh CASKIN2 (11723855_a_at) / RFU LOC730098 (11760151_x_at) / Fold change /veh LOC730098 (11760151_x_at) / RFU OR4N2 (11742367_at) / Fold change /veh OR4N2 (11742367_at) / RFU PRRT2 (11749266_a_at) / Fold change /veh PRRT2 (11749266_a_at) / RFU SNX32 (11753110_a_at) / Fold change /veh SNX32 (11753110_a_at) / RFU CDHR5 (11726645_a_at) / Fold change /veh CDHR5 (11726645_a_at) / RFU RCAN1 (11760418_a_at) / Fold change /veh RCAN1 (11760418_a_at) / RFU FAM167A (11723789_a_at) / Fold change /veh FAM167A (11723789_a_at) / RFU FAM26E (11764081_at) / Fold change /veh FAM26E (11764081_at) / RFU ISYNA1 (11749810_s_at) / Fold change /veh ISYNA1 (11749810_s_at) / RFU ACY1 (11761880_at) / Fold change /veh ACY1 (11761880_at) / RFU 11764098_at / Fold change /veh 11764098_at / RFU SAMD14 (11745864_x_at) / Fold change /veh SAMD14 (11745864_x_at) / RFU NPB (11741838_a_at) / Fold change /veh NPB (11741838_a_at) / RFU TMPRSS6 (11731388_a_at) / Fold change /veh TMPRSS6 (11731388_a_at) / RFU KRTAP10-2 (11738614_at) / Fold change /veh KRTAP10-2 (11738614_at) / RFU ARHGAP8 /// PRR5-ARHGAP8 (11727945_x_at) / Fold change /veh ARHGAP8 /// PRR5-ARHGAP8 (11727945_x_at) / RFU KRTAP5-7 /// NADSYN1 (11734609_at) / Fold change /veh KRTAP5-7 /// NADSYN1 (11734609_at) / RFU RASL12 (11751679_a_at) / Fold change /veh RASL12 (11751679_a_at) / RFU CDKN2B (11736163_a_at) / Fold change /veh CDKN2B (11736163_a_at) / RFU PRF1 (11729649_at) / Fold change /veh PRF1 (11729649_at) / RFU, ZNF638 /// ZNF638-IT1 / Fold change vs veh, ZNF638 /// ZNF638-IT1 / RFU, PANK3 / Fold change vs veh, PANK3 / RFU, SH3YL1 / Fold change vs veh, SH3YL1 / RFU, ZEB2 / Fold change vs veh, ZEB2 / RFU, NRIP1 / Fold change vs veh, NRIP1 / RFU, PTTG1IP / Fold change vs veh, PTTG1IP / RFU, CAPN2 / Fold change vs veh, CAPN2 / RFU, MED14 / Fold change vs veh, MED14 / RFU, SNORA58 / Fold change vs veh, SNORA58 / RFU, C1orf63 / Fold change vs veh, C1orf63 / RFU, LRRFIP1 / Fold change vs veh, LRRFIP1 / RFU, NDUFAF7 / Fold change vs veh, NDUFAF7 / RFU, SLC12A2 / Fold change vs veh, SLC12A2 / RFU, IBTK / Fold change vs veh, IBTK / RFU, ESF1 / Fold change vs veh, ESF1 / Fold change vs veh, TMEM50B / RFU, TAOK1 / Fold change vs veh, TAOK1 / RFU, ACBD3 / Fold change vs veh, ACBD3 / RFU, TMA16 / Fold change vs veh, TMA16 / RFU, RWDD3 / Fold change vs veh, RWDD3 / RFU, BCAT1 / Fold change vs veh, BCAT1 / RFU, EDEM3 / Fold change vs veh, EDEM3 / RFU, TMEM33 / Fold change vs veh, TMEM33 / RFU, WDR75 / Fold change vs veh, WDR75 / RFU, AHCTF1 / Fold change vs veh, AHCTF1 / RFU, TFRC / Fold change vs veh, TFRC / RFU, ZDHHC17 / Fold change vs veh, ZDHHC17 / RFU, NOM1 / Fold change vs veh, NOM1 / RFU, ARL8B / Fold change vs veh, ARL8B / RFU, ZBTB11 / Fold change vs veh, ZBTB11 / RFU, TAMM41 / Fold change vs veh, TAMM41 / RFU, KIAA1704 /// LOC100996395 / Fold change vs veh, KIAA1704 /// LOC100996395 / RFU, ING1 / Fold change vs veh, ING1 / RFU, TRMT61B / Fold change vs veh, TRMT61B / RFU, FUBP3 / Fold change vs veh, FUBP3 / RFU, TP53 / Fold change vs veh, TP53 / RFU, TNKS2 / Fold change vs veh, TNKS2 / RFU, ZFP14 / Fold change vs veh, ZFP14 / RFU, ACTR2 / Fold change vs veh, ACTR2 / RFU, PPP3R1 / Fold change vs veh, PPP3R1 / RFU, PIK3R1 / Fold change vs veh, PIK3R1 / RFU, HNRNPA1 / Fold change vs veh, HNRNPA1 / RFU, RNF170 / Fold change vs veh, RNF170 / RFU, ZNF28 / Fold change vs veh, ZNF28 / RFU, RNGTT / Fold change vs veh, RNGTT / RFU, OGT / Fold change vs veh, OGT / RFU, BRD1 / Fold change vs veh, BRD1 / RFU, MARS / Fold change vs veh, MARS / RFU, ZNF655 / Fold change vs veh, ZNF655 / RFU, FAHD1 / Fold change vs veh, FAHD1 / RFU, BDP1 / Fold change vs veh, BDP1 / RFU, LRRCC1 / Fold change vs veh, LRRCC1 / RFU, ARID1A / Fold change vs veh, ARID1A / RFU, ZNF146 / Fold change vs veh, ZNF146 / RFU, ZNF330 / Fold change vs veh, ZNF330 / RFU, GPN3 / Fold change vs veh, GPN3 / RFU, C9orf123 / Fold change vs veh, C9orf123 / RFU, N4BP2L2 / Fold change vs veh, N4BP2L2 / RFU, ARFIP1 / Fold change vs veh, ARFIP1 / RFU, FAM179B / Fold change vs veh, FAM179B / RFU, BCL10 / Fold change vs veh, BCL10 / RFU, UHRF1BP1L / Fold change vs veh, UHRF1BP1L / RFU, BET1 / Fold change vs veh, BET1 / RFU, CNOT2 / Fold change vs veh, CNOT2 / RFU, ZNF268 / Fold change vs veh, ZNF268 / Fold change vs veh, ZNF507 / RFU, DGCR2 / Fold change vs veh, DGCR2 / RFU, WDSUB1 / Fold change vs veh, WDSUB1 / Fold change vs veh, HSP90B1 /// MIR3652 / RFU, ADSS / Fold change vs veh, ADSS / RFU, GK / Fold change vs veh, GK / RFU, ZNF148 / Fold change vs veh, ZNF148 / RFU, TAF9 / Fold change vs veh, TAF9 / RFU, SLC1A5 / Fold change vs veh, SLC1A5 / RFU, SLMO2 / Fold change vs veh, SLMO2 / RFU, ABCC4 / Fold change vs veh, ABCC4 / RFU, LOC101060439 /// RAP1B / Fold change vs veh, LOC101060439 /// RAP1B / RFU, RFX7 / Fold change vs veh, RFX7 / RFU, GTPBP10 / Fold change vs veh, GTPBP10 / RFU, CNEP1R1 / Fold change vs veh, CNEP1R1 / RFU, BIVM-ERCC5 /// ERCC5 / Fold change vs veh, BIVM-ERCC5 /// ERCC5 / RFU, ILF3 / Fold change vs veh, ILF3 / RFU 11762660_at / Fold change /veh 11762660_at / RFU VCAN (11757783_s_at) / Fold change /veh VCAN (11757783_s_at) / RFU DDX43 (11728927_at) / Fold change /veh DDX43 (11728927_at) / RFU KRT8 (11758188_x_at) / Fold change /veh KRT8 (11758188_x_at) / RFU NKD1 (11759106_at) / Fold change /veh NKD1 (11759106_at) / RFU SRD5A1 (11742802_a_at) / Fold change /veh SRD5A1 (11742802_a_at) / RFU TPSAB1 /// TPSB2 (11721975_s_at) / Fold change /veh TPSAB1 /// TPSB2 (11721975_s_at) / RFU GSTM3 (11746129_a_at) / Fold change /veh GSTM3 (11746129_a_at) / RFU IL23R (11737362_x_at) / Fold change /veh IL23R (11737362_x_at) / RFU TMEM51 (11727254_a_at) / Fold change /veh TMEM51 (11727254_a_at) / RFU PIWIL2 (11732686_x_at) / Fold change /veh PIWIL2 (11732686_x_at) / RFU ORM1 (11744905_x_at) / Fold change /veh ORM1 (11744905_x_at) / RFU CCDC152 (11743942_at) / Fold change /veh CCDC152 (11743942_at) / RFU ECM1 (11717891_a_at) / Fold change /veh ECM1 (11717891_a_at) / RFU IL23R (11748794_a_at) / Fold change /veh IL23R (11748794_a_at) / RFU TNFAIP8L3 (11732012_x_at) / Fold change /veh TNFAIP8L3 (11732012_x_at) / RFU MBOAT4 (11741988_at) / Fold change /veh MBOAT4 (11741988_at) / RFU 11764193_at / Fold change /veh 11764193_at / RFU TMEM53 (11763286_at) / Fold change /veh TMEM53 (11763286_at) / RFU MAGEB2 (11727129_at) / Fold change /veh MAGEB2 (11727129_at) / RFU TMEM200A (11744735_a_at) / Fold change /veh TMEM200A (11744735_a_at) / RFU CCDC152 (11751479_a_at) / Fold change /veh CCDC152 (11751479_a_at) / RFU FAM211A (11726209_a_at) / Fold change /veh FAM211A (11726209_a_at) / RFU RGS16 (11746705_a_at) / Fold change /veh RGS16 (11746705_a_at) / RFU VCAN (11755009_s_at) / Fold change /veh VCAN (11755009_s_at) / RFU RHOB (11743442_s_at) / Fold change /veh RHOB (11743442_s_at) / RFU RGS16 (11720943_a_at) / Fold change /veh RGS16 (11720943_a_at) / RFU RGS16 (11720944_at) / Fold change /veh RGS16 (11720944_at) / RFU, VPS4B / Fold change vs veh, VPS4B / RFU, CREB1 / Fold change vs veh, CREB1 / RFU, DNAJC13 / Fold change vs veh, DNAJC13 / RFU, GNAQ / Fold change vs veh, GNAQ / RFU, CDK5R1 / Fold change vs veh, CDK5R1 / RFU, ZRANB3 / Fold change vs veh, ZRANB3 / RFU, CUL4A / Fold change vs veh, CUL4A / RFU, CCNY / Fold change vs veh, CCNY / RFU, UFL1 / Fold change vs veh, UFL1 / RFU, COG3 / Fold change vs veh, COG3 / RFU, DIAPH2 / Fold change vs veh, DIAPH2 / RFU, SKA2 / Fold change vs veh, SKA2 / RFU, AFF3 / Fold change vs veh, AFF3 / RFU, LMF1 / Fold change vs veh, LMF1 / RFU, IPO11 / Fold change vs veh, IPO11 / RFU, DFFB / Fold change vs veh, DFFB / RFU, FOXP1 / Fold change vs veh, FOXP1 / RFU, CARD8 / Fold change vs veh, CARD8 / RFU, STRN3 / Fold change vs veh, STRN3 / RFU, ADK / Fold change vs veh, ADK / RFU, RASSF2 / Fold change vs veh, RASSF2 / RFU, WIPF1 / Fold change vs veh, WIPF1 / RFU, LARP1B / Fold change vs veh, LARP1B / RFU, RASA1 / Fold change vs veh, RASA1 / RFU, RB1 / Fold change vs veh, RB1 / RFU, PPFIA1 / Fold change vs veh, PPFIA1 / RFU, MAT2A / Fold change vs veh, MAT2A / RFU, CCT5 / Fold change vs veh, CCT5 / RFU, WDR92 / Fold change vs veh, WDR92 / RFU, CUX1 / Fold change vs veh, CUX1 / RFU, TTC7A / Fold change vs veh, TTC7A / RFU, TMEM135 / Fold change vs veh, TMEM135 / RFU, DEPTOR / Fold change vs veh, DEPTOR / RFU, CPM / Fold change vs veh, CPM / RFU, DNAJB6 / Fold change vs veh, DNAJB6 / RFU, CACNA2D3 / Fold change vs veh, CACNA2D3 / RFU, DTX4 / Fold change vs veh, DTX4 / RFU, TFCP2 / Fold change vs veh, TFCP2 / RFU, GMCL1 /// GMCL1P1 / Fold change vs veh, GMCL1 /// GMCL1P1 / RFU, AEBP2 / Fold change vs veh, AEBP2 / RFU, SNHG1 /// SNORD22 /// SNORD25 /// SNORD26 /// SNORD27 /// SNORD28 /// SNORD29 /// SNORD31 / Fold change vs veh, SNHG1 /// SNORD22 /// SNORD25 /// SNORD26 /// SNORD27 /// SNORD28 /// SNORD29 /// SNORD31 / Fold change (Aza/veh), C12orf56 (ProbeSet 11735607_a_at) / Fold change (ACY-1035/veh), C12orf56 (ProbeSet 11735607_a_at) / Fold change (Aza/veh), FGFR1OP (ProbeSet 11751329_s_at) / Fold change (ACY-1035/veh), FGFR1OP (ProbeSet 11751329_s_at) / Fold change (Aza/veh), VPS36 (ProbeSet 11739960_a_at) / Fold change (ACY-1035/veh), VPS36 (ProbeSet 11739960_a_at) / RFU SYPL1 (11715823_x_at) / Fold change /veh SYPL1 (11715823_x_at) / RFU IGFBP7 (11715501_s_at) / Fold change /veh IGFBP7 (11715501_s_at) / RFU REEP3 (11722064_at) / Fold change /veh REEP3 (11722064_at) / RFU IGLL1 (11728026_x_at) / Fold change /veh IGLL1 (11728026_x_at): dose or concentration left out as unconfirmed
Conditions: ProbeSet 11746640_a_at; LIST D

Nc1ccc(-c2cccs2)cc1NC(=O)c1ccc2c(c1)cc(C1CC1)n2CCN1CCOCC1 [ACY-1035]
Fold change vs veh, RASSF2: 0.86
